SMILES strings stand for the structures.

What all share (type): cell-based
Assay [1] has as its target IKZF1 (Homo sapiens, UniProt Q13422+Q96SW2). Kind of assay: Prolabel quantification of IKZF1 protein levels in 293GT cells. As to conditions: Prolabel assay, read-out: IKZF1 EC50.
Assay [2] concerns the target IKZF2 (Homo sapiens, UniProt Q96SW2+Q9UKS7). As to the kind of experiment: Prolabel quantification of IKZF2 protein levels in 293GT cells. The following applies: for inhibition at 10 µM: 24 h, read-out: IKZF2 % protein reduction at 10 μM, 24 h; for inhibition at 10 µM / DC50: 293GT cells; for DC50: Prolabel assay, read-out: IKZF2 EC50.
The target of assay [3] is GSPT1 (Homo sapiens, UniProt P15170+Q96SW2). Kind of assay: Prolabel quantification of GSPT1 protein levels in 293GT cells. As to conditions: Prolabel assay, read-out: GSPT1 EC50. As to the method: The Prolabel system from DiscoverX was used to develop high-throughput and quantitative assays to measure changes in IKZF1, IKZF2 and GSPT1 protein levels in response to compounds. The prolabel tag was derived from the alpha fragment of beta galactosidase and has the following protein sequence: mssnslavvlqrrdwenpgvtqlnrlaahppfaswrnseeartdrpsqqlrslnge. The complementary fragment of beta-galactosidase (from DiscoverX), is added to the prolabel tag to form an active beta galactosidase enzyme whose activity can be precisely measured. In this way, the levels of a fusion protein with the prolabel tag can be quantified in cell lysates.
Lentiviral vectors, based on the Invitrogen pLenti6.2/V5 DEST backbone, were constructed that placed the prolabel tag upstream of IKZF1, IKZF2 or GSPT1 and expressed the fusion protein from a CMV promoter.
To ensure moderate and consistent expression of the prolabel fusion proteins across all cells in the population, stable cell lines were constructed from cells expressing a single copy of the construct. Lentivirus packaged with the constructs was made using the Virapower kit from Invitrogen.
The levels of prolabel tagged fusion proteins in compound treated cell lines were measured as follows:
Day 1, Cells were diluted to 1.0×10^6 cells/ml in normal growth medium. 17.5 μL of cells were plated in each well of a solid white 384 well plate. Plates were incubated overnight in a 37° C. tissue culture incubator.
Day 2, Serial dilutions of compounds were made in 384 well plates from 10 mM stocks. 15 μL of DMSO was added to each well of a 384 well plate. In the first column 15 μL of stock compound was added. The solution was mixed and 15 μL was transferred to the next column. This was repeated until 20 two-fold dilutions were prepared. 2.5 μL of diluted compounds were transferred into 60 μL of cell culture medium in another 384 well plate, and mixed well. 2.5 μL of this mixture was added to the plated cells. The final DMSO concentration was 0.5% and the highest concentration of compound was 50 μM. Plates were incubated overnight (e.g., about 14 h, 18 h, or 24 h) in a 37° C. tissue culture incubator.
Day 3, Plates were removed from the incubator and allowed to equilibrate at rt for 30 minutes. Prolabel substrate (DiscoverX PathHunter Prolabel Detection Kit, User manual: 93-0180) was added as described by the manufacturers protocols. Plates were incubated at rt for three hours and luminescence was read using an Envision reader (Perkin Elmer) Data was analyzed and visualized using the Spotfire software package.

IKZF1, sequence (Q13422 whole entry): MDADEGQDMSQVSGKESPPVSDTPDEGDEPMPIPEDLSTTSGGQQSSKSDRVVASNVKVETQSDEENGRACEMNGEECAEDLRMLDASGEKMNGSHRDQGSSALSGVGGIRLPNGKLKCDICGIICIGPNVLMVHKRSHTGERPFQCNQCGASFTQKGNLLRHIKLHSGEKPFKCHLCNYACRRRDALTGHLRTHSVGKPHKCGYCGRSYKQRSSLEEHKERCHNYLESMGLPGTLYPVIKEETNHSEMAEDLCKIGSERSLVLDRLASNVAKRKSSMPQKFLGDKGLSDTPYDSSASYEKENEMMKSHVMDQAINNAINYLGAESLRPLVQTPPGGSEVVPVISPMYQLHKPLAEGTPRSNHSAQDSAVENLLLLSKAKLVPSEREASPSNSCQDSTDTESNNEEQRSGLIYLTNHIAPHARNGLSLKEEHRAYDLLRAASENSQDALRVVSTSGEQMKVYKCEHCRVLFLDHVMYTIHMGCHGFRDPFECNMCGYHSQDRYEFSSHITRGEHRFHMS
IKZF1, sequence (Q96SW2 whole entry): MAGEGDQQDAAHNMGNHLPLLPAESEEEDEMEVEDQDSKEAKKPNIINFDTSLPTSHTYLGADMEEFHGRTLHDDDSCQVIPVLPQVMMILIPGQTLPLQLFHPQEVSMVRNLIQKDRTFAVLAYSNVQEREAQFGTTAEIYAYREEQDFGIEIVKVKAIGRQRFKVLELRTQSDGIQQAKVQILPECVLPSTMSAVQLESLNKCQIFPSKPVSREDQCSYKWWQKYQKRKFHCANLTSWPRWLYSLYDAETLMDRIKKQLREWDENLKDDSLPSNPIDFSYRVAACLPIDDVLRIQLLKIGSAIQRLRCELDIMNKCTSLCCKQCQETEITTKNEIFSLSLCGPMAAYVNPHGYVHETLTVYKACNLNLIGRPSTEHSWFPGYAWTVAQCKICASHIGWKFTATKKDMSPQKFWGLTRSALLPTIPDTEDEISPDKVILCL
IKZF1, sequence (Q16531 whole entry partner): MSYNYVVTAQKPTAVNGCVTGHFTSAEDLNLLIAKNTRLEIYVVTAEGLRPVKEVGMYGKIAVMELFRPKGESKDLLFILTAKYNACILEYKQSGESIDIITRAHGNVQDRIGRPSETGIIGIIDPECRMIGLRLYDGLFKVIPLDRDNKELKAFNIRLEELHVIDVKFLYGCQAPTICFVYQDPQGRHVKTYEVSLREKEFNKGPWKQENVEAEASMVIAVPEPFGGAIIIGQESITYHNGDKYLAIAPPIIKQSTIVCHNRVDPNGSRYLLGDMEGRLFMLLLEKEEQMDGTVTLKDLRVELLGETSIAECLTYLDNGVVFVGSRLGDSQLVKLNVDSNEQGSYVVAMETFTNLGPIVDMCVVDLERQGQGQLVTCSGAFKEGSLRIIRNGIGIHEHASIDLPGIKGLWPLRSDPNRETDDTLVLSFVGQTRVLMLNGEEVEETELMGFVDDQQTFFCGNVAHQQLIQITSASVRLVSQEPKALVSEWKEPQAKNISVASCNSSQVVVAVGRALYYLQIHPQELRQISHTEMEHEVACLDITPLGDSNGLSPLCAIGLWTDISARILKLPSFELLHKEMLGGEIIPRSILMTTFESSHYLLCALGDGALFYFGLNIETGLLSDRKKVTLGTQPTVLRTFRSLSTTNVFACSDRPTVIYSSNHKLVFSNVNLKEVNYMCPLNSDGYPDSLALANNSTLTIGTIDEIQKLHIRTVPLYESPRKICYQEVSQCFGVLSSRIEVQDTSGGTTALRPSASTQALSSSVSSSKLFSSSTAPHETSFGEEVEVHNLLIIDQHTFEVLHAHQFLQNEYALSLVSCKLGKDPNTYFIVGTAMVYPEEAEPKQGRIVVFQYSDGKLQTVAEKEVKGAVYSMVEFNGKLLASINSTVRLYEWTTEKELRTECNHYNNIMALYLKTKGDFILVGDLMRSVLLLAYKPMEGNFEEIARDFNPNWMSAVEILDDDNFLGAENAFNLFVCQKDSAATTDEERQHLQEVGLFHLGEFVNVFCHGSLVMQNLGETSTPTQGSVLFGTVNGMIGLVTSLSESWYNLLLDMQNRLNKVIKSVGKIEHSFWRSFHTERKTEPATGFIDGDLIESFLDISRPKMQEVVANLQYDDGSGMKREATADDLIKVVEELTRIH
GSPT1, sequence (P15170 whole entry, the tested form may be a part): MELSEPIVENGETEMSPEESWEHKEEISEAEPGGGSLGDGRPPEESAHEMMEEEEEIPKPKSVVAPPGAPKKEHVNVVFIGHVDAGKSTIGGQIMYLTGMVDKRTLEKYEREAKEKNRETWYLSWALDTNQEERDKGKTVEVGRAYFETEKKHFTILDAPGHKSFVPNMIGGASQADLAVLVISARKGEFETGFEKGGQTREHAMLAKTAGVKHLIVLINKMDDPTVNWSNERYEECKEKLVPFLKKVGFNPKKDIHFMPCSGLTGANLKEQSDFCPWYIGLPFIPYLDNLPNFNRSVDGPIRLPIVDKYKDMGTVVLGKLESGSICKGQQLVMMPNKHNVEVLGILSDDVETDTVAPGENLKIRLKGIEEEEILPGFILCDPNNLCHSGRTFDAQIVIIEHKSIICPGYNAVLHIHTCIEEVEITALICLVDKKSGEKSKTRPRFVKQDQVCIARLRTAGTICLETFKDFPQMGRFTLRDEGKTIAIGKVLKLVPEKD
GSPT1, sequence (Q96SW2 whole entry, the tested form may be a part): as the sequence (Q96SW2 whole entry) above
GSPT1, sequence (Q16531 whole entry partner, the tested form may be a part): as the sequence (Q16531 whole entry partner) above
IKZF2, sequence (Q9UKS7 whole entry, the tested form may be a part): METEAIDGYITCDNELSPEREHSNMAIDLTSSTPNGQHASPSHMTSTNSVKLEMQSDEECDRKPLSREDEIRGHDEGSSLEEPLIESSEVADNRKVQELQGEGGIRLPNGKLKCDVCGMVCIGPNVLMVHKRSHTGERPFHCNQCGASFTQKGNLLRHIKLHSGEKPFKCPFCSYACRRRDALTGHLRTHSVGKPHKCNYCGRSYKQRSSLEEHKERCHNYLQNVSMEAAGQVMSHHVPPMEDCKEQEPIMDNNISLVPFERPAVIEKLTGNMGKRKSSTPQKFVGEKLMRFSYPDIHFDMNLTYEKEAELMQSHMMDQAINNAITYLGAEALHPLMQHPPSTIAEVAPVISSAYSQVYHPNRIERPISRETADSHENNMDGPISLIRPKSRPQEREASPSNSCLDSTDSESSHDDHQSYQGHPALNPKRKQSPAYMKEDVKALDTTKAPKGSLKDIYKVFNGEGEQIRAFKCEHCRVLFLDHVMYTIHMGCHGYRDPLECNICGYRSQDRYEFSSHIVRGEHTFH
IKZF2, sequence (Q96SW2 whole entry, the tested form may be a part): as the sequence (Q96SW2 whole entry) above
IKZF2, sequence (Q16531 whole entry partner, the tested form may be a part): as the sequence (Q16531 whole entry partner) above

As for `O=C1CCC(N2Cc3cc(C4CCN(Cc5ccc6cn[nH]c6c5)CC4)ccc3C2=O)C(=O)N1` (stereo not shown) [Compound I-137, 3-(5-(1-((1H-indazol-6-yl)methyl)piperidin-4-yl)-1-oxoisoindolin-2-yl)piperidine-2,6-dione], the figures for the DC50 in assay [1], in assay [2] and in assay [3] were more than 30 µM, 0.009 µM and more than 30 µM, respectively. Also, in assay [2], the inhibition at 10 µM worked out at 80%.

For the compound `CN(C)S(=O)(=O)c1ccc(CN2CCC(c3ccc4c(c3)CN(C3CCC(=O)NC3=O)C4=O)CC2)cc1` (stereo not shown) [Compound I-237, 4-((4-(2-(2,6-dioxopiperidin-3-yl)-1-oxoisoindolin-5-yl)piperidin-1-yl)methyl)-N,N-dimethylbenzenesulfonamide], the DC50 in assay [1] is more than 30 µM; in assay [2], 0.02 µM; in assay [3], more than 30 µM. For the same compound, the inhibition at 10 µM in assay [2] worked out at 70%.

Take `O=C1CCC(N2Cc3cc(C4CCN(Cc5cccnc5)CC4)ccc3C2=O)C(=O)N1` (stereo not shown) [Compound I-59, 3-(1-oxo-5-(1-(pyridin-3-ylmethyl)piperidin-4-yl)isoindolin-2-yl)piperidine-2,6-dione]: the DC50 was more than 30 µM in assay [1], 0.031 µM in assay [2] and more than 30 µM in assay [3]. Also, the inhibition at 10 µM in assay [2] came out at 80%.

For `O=C1CCC(N2Cc3cc(C4CCNCC4)ccc3C2=O)C(=O)N1` (stereo not shown) [Compound I-155, 3-(1-oxo-5-(piperidin-4-yl)isoindolin-2-yl)piperidine-2,6-dione], the DC50 in assay [1] and in assay [3] was more than 50 µM in each case. The inhibition at 10 µM in assay [2] came out at 40%.

As to `COc1ncc(CN2CCC(c3ccc4c(c3)CN(C3CCC(=O)NC3=O)C4=O)CC2)cn1` (stereo not shown) [Compound I-68, 3-(5-(1-((2-methoxypyrimidin-5-yl)methyl)piperidin-4-yl)-1-oxoisoindolin-2-yl)piperidine-2,6-dione], the values for the DC50 in assay [1], in assay [2] and in assay [3] were more than 50 µM, 0.003 µM and more than 30 µM, respectively. Further, the inhibition at 10 µM in assay [2] is 50%. Also, in assay [2] (Prolabel assay in HEK293GT cells, bar graph), the “IKZF2 protein levels as compared to the control (DMSO)” value was “decreased”.

Take `O=C1CCC(N2Cc3cc(C4CCN(Cc5ccc(Cl)cc5)CC4)ccc3C2=O)C(=O)N1` (stereo not shown) [Compound I-97, 3-(5-(1-(4-chlorobenzyl)piperidin-4-yl)-1-oxoisoindolin-2-yl)piperidine-2,6-dione]: the DC50 in assay [1] is more than 50 µM; in assay [2] it was 0.027 µM; in assay [3], more than 50 µM. Besides, the inhibition at 10 µM in assay [2] turned out to be 55%.

As to `CC1(C)CC(c2ccc3c(c2)CN(C2CCC(=O)NC2=O)C3=O)CC(C)(C)N1` (stereo not shown) [Compound I-171, 3-(1-oxo-5-(2,2,6,6-tetramethylpiperidin-4-yl)isoindolin-2-yl)piperidine-2,6-dione], the DC50 in assay [1] and in assay [3] was more than 50 µM each time. Besides, the inhibition at 10 µM in assay [2] came to 5%.

With `O=C1CCC(N2Cc3cc(C4CCN(Cc5ccc(-n6cccn6)cc5)CC4)ccc3C2=O)C(=O)N1` (stereo not shown) [Compound I-91, 3-(5-(1-(4-(1H-pyrazol-1-yl)benzyl)piperidin-4-yl)-1-oxoisoindolin-2-yl)piperidine-2,6-dione], the DC50 in assay [1] was more than 30 µM; in assay [2], 0.018 µM; in assay [3], more than 30 µM. The inhibition at 10 µM in assay [2] was 75%.

For the compound `Cc1onc(-c2ccccc2)c1CN1CCC(c2ccc3c(c2)CN(C2CCC(=O)NC2=O)C3=O)CC1` (stereo not shown) [Compound I-251, 3-(5-(1-((5-methyl-3-phenylisoxazol-4-yl)methyl)piperidin-4-yl)-1-oxoisoindolin-2-yl)piperidine-2,6-dione], the DC50 in assay [1] was more than 30 µM; in assay [2], 0.021 µM; in assay [3] it was more than 30 µM. Moreover, the inhibition at 10 µM in assay [2] amounted to 60%.

Regarding `O=C1CCC(N2Cc3cc(C4CCN(Cc5ccc(C6CCCC6)cc5)CC4)ccc3C2=O)C(=O)N1` (stereo not shown) [Compound I-110, 3-(5-(1-(4-cyclopentylbenzyl)piperidin-4-yl)-1-oxoisoindolin-2-yl)piperidine-2,6-dione], the DC50 in assay [1] was more than 30 µM; in assay [2], 0.074 µM; in assay [3] it was more than 30 µM. Also, in assay [2], the inhibition at 10 µM was 75%.

As for `O=C1CCC(N2Cc3cc(C4CCN(CC5CCCc6ccccc65)CC4)ccc3C2=O)C(=O)N1` (stereo not shown) [Compound I-168, 3-(1-oxo-5-(1-((1,2,3,4-tetrahydronaphthalen-1-yl)methyl)piperidin-4-yl)isoindolin-2-yl)piperidine-2,6-dione], the DC50 in assay [1] was more than 50 µM; in assay [2], 0.014 µM; in assay [3], more than 50 µM. The inhibition at 10 µM in assay [2] came out at 55%.

Consider `O=C1CCC(N2Cc3cc(C4CCN(Cc5nc6ccsc6c(=O)[nH]5)CC4)ccc3C2=O)C(=O)N1` (stereo not shown) [Compound I-213, 3-(1-oxo-5-(1-((4-oxo-3,4-dihydrothieno[3,2-d]pyrimidin-2-yl)methyl)piperidin-4-yl)isoindolin-2-yl)piperidine-2,6-dione], for which the DC50 was more than 30 µM in assay [1], 0.045 µM in assay [2] and more than 30 µM in assay [3]. In addition, in assay [2], the inhibition at 10 µM is 70%.

As for `O=C1CCC(N2Cc3cc(C4CCN(Cc5cc(F)c(O)c(F)c5)CC4)ccc3C2=O)C(=O)N1` (stereo not shown) [Compound I-156, 3-(5-(1-(3,5-difluoro-4-hydroxybenzyl)piperidin-4-yl)-1-oxoisoindolin-2-yl)piperidine-2,6-dione], the DC50 was more than 50 µM in assay [1], 0.022 µM in assay [2] and more than 50 µM in assay [3]. Besides, the inhibition at 10 µM in assay [2] was determined as 70%.

With `N#Cc1cccc(CN2CCC(c3ccc4c(c3)CN(C3CCC(=O)NC3=O)C4=O)CC2)c1` (stereo not shown) [Compound I-36, 3-((4-(2-(2,6-dioxopiperidin-3-yl)-1-oxoisoindolin-5-yl)piperidin-1-yl)methyl)benzonitrile], the DC50 in assay [1] is more than 30 µM; in assay [2], 0.017 µM; in assay [3] it was more than 30 µM. For the same compound, in assay [2], the inhibition at 10 µM came out at 75%.

As for `O=C1CCC(N2Cc3cc(C4CCN(Cc5ccc(OC(F)F)cc5)CC4)ccc3C2=O)C(=O)N1` (stereo not shown) [Compound I-77, 3-(5-(1-(4-(difluoromethoxy)benzyl)piperidin-4-yl)-1-oxoisoindolin-2-yl)piperidine-2,6-dione], the DC50 is more than 30 µM in assay [1], 0.007 µM in assay [2] and more than 30 µM in assay [3]. In assay [2], the inhibition at 10 µM came to 80%.

With `Cc1ccccc1CN1CCC(c2ccc3c(c2)CN(C2CCC(=O)NC2=O)C3=O)CC1` (stereo not shown) [Compound I-157, 3-(5-(1-(2-methylbenzyl)piperidin-4-yl)-1-oxoisoindolin-2-yl)piperidine-2,6-dione], the DC50 is more than 50 µM in assay [1], 0.056 µM in assay [2] and more than 50 µM in assay [3]. For the same compound, the inhibition at 10 µM in assay [2] came out at 55%.

As for `Cc1cc(C)cc(CN2CCC(c3ccc4c(c3)CN(C3CCC(=O)NC3=O)C4=O)CC2)c1` (stereo not shown) [Compound I-159, 3-(5-(1-(3,5-dimethylbenzyl)piperidin-4-yl)-1-oxoisoindolin-2-yl)piperidine-2,6-dione], the results for the DC50 in assay [1], in assay [2] and in assay [3] were more than 50 µM, 0.019 µM and more than 50 µM, respectively. Further, the inhibition at 10 µM in assay [2] amounted to 55%.

With `Cc1ccc2sc(-c3ccc(CN4CCC(c5ccc6c(c5)CN(C5CCC(=O)NC5=O)C6=O)CC4)cc3)nc2c1` (stereo not shown) [Compound I-225, 3-(5-(1-(4-(5-methylbenzo[d]thiazo1-2-yl)benzyl)piperidin-4-yl)-1-oxoisoindolin-2-yl)piperidine-2,6-dione], the results for the DC50 in assay [1], in assay [2] and in assay [3] were more than 30 µM, 0.12 µM and more than 30 µM, respectively. Besides, the inhibition at 10 µM in assay [2] came to 65%.

For the compound `O=C1CCC(N2Cc3cc(C4CCN(CC(F)(F)F)CC4)ccc3C2=O)C(=O)N1` (stereo not shown) [Compound I-253, 3-(1-oxo-5-(1-(2,2,2-trifluoroethyl)piperidin-4-yl)isoindolin-2-yl)piperidine-2,6-dione], the DC50 in assay [1], in assay [2] and in assay [3] was more than 50 µM each time. In assay [2], the inhibition at 10 µM is 0%.

For `Cc1ccc2c(CN3CCC(c4ccc5c(c4)CN(C4CCC(=O)NC4=O)C5=O)CC3)c[nH]c2c1` (stereo not shown) [Compound I-149, 3-(5-(1-((6-methyl-1H-indol-3-yl)methyl)piperidin-4-yl)-1-oxoisoindolin-2-yl)piperidine-2,6-dione], the DC50 in assay [1] was more than 30 µM; in assay [2] it was 0.016 µM; in assay [3], more than 30 µM. Further, the inhibition at 10 µM in assay [2] came to 80%.

These data come from US11053218B2, “3-(1-oxoisoindolin-2-yl)piperidine-2,6-dione derivatives and uses thereof” (Novartis AG, priority 2017, dated 2021).
